What all share (format): cell-based
The target in one test is T1, OR5A2_variant 1 (Homo sapiens, UniProt Q8NGI9).
T1 construct: expressed in transfected cells; host or cells: HEK293T-RTP1A1/RTP2
T1 sequence (Q8NGI9 1-324): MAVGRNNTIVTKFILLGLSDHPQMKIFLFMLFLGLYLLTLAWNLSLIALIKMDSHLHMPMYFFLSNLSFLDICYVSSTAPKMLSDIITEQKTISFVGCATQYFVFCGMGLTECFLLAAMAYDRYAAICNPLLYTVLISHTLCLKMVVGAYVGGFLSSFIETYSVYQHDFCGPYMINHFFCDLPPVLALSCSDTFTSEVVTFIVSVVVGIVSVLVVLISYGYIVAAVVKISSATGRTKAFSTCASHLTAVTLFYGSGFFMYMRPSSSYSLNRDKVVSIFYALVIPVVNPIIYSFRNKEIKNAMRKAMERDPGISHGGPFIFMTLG
Put plainly: Luciferase reporter concentration-response analysis on OR5A2_variant 1. The conditions noted are these: CRE-luciferase; semi-logarithmic serial dilutions; empty vector pEFIBRHO as control. The method, then:
(§1) HEK293T-RTP1A1/RTP2 cells were maintained in minimal essential medium (EMEM, Lonza) containing 10% fetal bovine serum (M10). These cells were generated by transfecting HEK293T with an expression vector containing the sequences of the chaperone proteins RTP1A1 and RTP2 and a resistance gene to puromycin, using Lipofectamine 2000.
(§2) Odorant molecules were diluted at a concentration of 1 mole/liter (M) into dimethyl sulfoxide (DMSO) to generate stock solutions.
(§3) For concentration-response analysis, serial dilutions of the tested molecules were prepared from stock solutions in EMEM plated into 96-well plates.
(§4) For the initial deorphanisation screening and dose-response analysis, a Luciferase-based gene reporter assay (Promega, Leiden, The Nederlands) was used. Briefly, cells were platted on Poly-D-lysine-coated 96-well and transfected with a plasmid containing the CRE-luciferase and a plasmid containing the olfactory receptor. Sixteen hours after transfection, the culture medium was replaced by serum-free EMEM containing the tested compounds at a determined concentration. After four hours of incubation at 37° C. degree, cells were lysed and processed for luminescence measurement. Luminescene emission was recorded. Results were expressed as luciferase activity (Relative […] Unit (RLU)) or as percentage of the response induced by 10 μM of the adenylate cyclase activator Forskolin. An empty plasmid is used as negative control.
(§5) 35 musk compounds from the four structurally different chemical groups previously described were tested in concentration-response analyses (Table 2). In each experiment, an empty vector was used as negative control (pEFIBRHO). […] Full results including the calculated EC50 are given in Table 2; “non active” represent negative experiments, no activation after testing.
In general terms: Reporter assays use an easily measured gene product as a stand-in for the process of interest.

For the next test, the target named is T2, OR5A1 (Homo sapiens, UniProt Q8NGJ0).
T2 construct: expressed in transfected cells; host or cells: HEK293T-RTP1A1/RTP2
T2 sequence (Q8NGJ0 1-315): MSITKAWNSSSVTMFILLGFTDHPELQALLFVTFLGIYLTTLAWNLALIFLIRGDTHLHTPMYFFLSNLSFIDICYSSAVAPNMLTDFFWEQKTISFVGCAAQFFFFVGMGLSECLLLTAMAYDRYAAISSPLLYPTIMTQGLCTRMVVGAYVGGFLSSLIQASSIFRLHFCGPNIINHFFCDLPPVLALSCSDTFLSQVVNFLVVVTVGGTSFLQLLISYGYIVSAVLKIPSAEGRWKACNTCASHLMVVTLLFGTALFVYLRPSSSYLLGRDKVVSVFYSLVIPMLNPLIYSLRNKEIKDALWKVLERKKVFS
As to the kind of experiment: Luciferase reporter concentration-response analysis on OR5A1. Particulars: CRE-luciferase; empty vector pEFIBRHO as control. The method, then: (§6) HEK293T-RTP1A1/RTP2 cells were maintained in minimal essential medium (EMEM, Lonza) containing 10% fetal bovine serum (M10). These cells were generated by transfecting HEK293T with an expression vector containing the sequences of the chaperone proteins RTP1A1 and RTP2 and a resistance gene to puromycin, using Lipofectamine 2000. The recombinant cell population, used in these experiments, was selected by adding 10 μg/ml of puromycin into the culture medium and subsequently subcloned (WO 2014/191047 A1).
as §2, §3
as §4, with “Briefly, cells were platted on Poly-D-lysine-coated 96-well and transfected with a plasmid containing the CRE-luciferase and a plasmid containing the olfactory receptor.” left out, “An empty plasmid is used as negative control.” left out

The target of another test is T3, OR5AN1 (Homo sapiens, UniProt Q8NGI8, E89G).
T3 construct: expressed in transfected cells; host or cells: HEK293T-RTP1A1/RTP2
T3 sequence (Q8NGI8 1-311 E89G): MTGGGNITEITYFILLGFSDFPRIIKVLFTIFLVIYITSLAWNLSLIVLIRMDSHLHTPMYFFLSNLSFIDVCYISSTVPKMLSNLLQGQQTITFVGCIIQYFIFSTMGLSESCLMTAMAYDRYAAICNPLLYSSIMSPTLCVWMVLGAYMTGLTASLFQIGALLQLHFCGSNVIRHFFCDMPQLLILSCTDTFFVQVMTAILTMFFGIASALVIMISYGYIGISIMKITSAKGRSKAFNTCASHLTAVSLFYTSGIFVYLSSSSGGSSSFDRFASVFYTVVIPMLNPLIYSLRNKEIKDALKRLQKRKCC
Put plainly: Luciferase reporter concentration-response analysis on OR5AN1. Particulars: CRE-luciferase; empty vector pEFIBRHO as control. The method, then: as §6, §2, §3, §4
In these analyses we also included ORs previously described as musk-specific receptors OR5AN1 (SEQ ID n° 7) (WO 2015/020158 A1, Shirasu et al. 2014 Neuron 81, 165-78, Sato-Akuhara N et al. 2016 J Neurosci. 36(16), 4482-91) and OR11A1 (SEQ ID n° 8) (WO 2016/201152 A1). […] Therefore, OR5A1 was included in the analyses. 35 musk compounds from the four structurally different chemical groups previously described were tested in concentration-response analyses (Table 2). In each experiment, an empty vector was used as negative control (pEFIBRHO). […] Full results including the calculated EC50 are given in Table 2; “non active” represent negative experiments, no activation after testing. […]

The target of the next test is T4, OR11A1 (Homo sapiens, UniProt Q9GZK7).
T4 construct: expressed in transfected cells; host or cells: HEK293T-RTP1A1/RTP2
T4 sequence (Q9GZK7 1-315): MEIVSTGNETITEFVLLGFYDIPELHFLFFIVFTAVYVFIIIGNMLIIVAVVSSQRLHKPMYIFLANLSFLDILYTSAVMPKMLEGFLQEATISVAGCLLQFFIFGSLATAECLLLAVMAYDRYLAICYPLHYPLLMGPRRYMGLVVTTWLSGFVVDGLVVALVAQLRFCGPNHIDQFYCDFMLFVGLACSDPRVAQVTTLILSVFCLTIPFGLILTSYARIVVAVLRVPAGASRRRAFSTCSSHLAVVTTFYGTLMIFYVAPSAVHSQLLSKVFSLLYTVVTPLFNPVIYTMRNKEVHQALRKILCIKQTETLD
Put plainly: Luciferase reporter concentration-response analysis on OR11A1. The conditions noted are these: CRE-luciferase; empty vector pEFIBRHO as control. The method, then: as §1, §2, §3, §4, §5
These compounds were tested in concentration-response analysis in luciferase assays, as described previously. In each experiment, an empty vector was used as negative control (pEFIBRHO).

A further test concerns the target T5, chimeric OR5A2_variant 1 (Homo sapiens, UniProt Q8NGI9, F293L/H55R/I289L/M58T).
T5 construct: expressed in transfected cells; host or cells: HEK293T-RTP1A1/RTP2
T5 sequence (Q8NGI9 with tags, fused parts or gaps H55R/M58T/I289L/F293L): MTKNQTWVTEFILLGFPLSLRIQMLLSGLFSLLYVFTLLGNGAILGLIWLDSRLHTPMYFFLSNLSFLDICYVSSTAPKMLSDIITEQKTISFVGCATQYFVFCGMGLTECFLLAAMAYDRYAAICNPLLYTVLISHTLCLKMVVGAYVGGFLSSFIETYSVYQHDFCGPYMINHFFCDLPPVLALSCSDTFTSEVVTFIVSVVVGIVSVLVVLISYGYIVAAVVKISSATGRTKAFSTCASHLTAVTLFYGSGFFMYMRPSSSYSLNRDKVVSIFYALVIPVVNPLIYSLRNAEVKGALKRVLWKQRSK
Put plainly: Luciferase reporter concentration-response analysis on chimeric OR5A2_variant 1. Particulars: CRE-luciferase, empty vector pEFIBRHO as control. The method, then:
as §1, §2, §3, §4
To test if the amino acids substitution could impact the musk sensitivity, and specificity and to validate the Krautwurst's model, luciferase assays were performed as described previously after transfection of the chimeric OR5A2_variant 1. Cells were treated with semi-logarithmic serial dilutions of musk compounds from the four structurally different groups described earlier.
In each experiment, an empty vector was used as negative control (pEFIBRHO).

Consider `CC(=O)/C=C/C1=C(C)CCCC1(C)C` [Beta-ionone], for which, on OR5A2_variant 1, the “activation of OR5A2 (OR5A2_variant 1), concentration-response” value was “stimulated neither”. Moreover, the “activation of OR5A1, concentration-response” value at OR5A1 is “able to activate OR5A1 only”. In addition, the “activation of OR5AN1, concentration-response” value on OR5AN1 is listed as “stimulated neither”. For the same compound, the “activation of OR11A1, concentration-response” value at OR11A1 is “able to activate OR5A1 only”. Also, the results for the “activation of chimeric OR5A2_variant 1, concentration-response” value at chimeric OR5A2_variant 1 and on chimeric OR5A2_variant 1 (listed as beta-ionone) were “not able to activate” and “not activated”, respectively.

Consider `CCC1(O)C2(C)CCC(C2)C1(C)C` (stereo not drawn) [2 ethyl-fenchol], for which, on OR5A2_variant 1, the “activation of OR5A2 (OR5A2_variant 1), concentration-response” value is on record as “stimulated neither”. Besides, the “activation of OR5A1, concentration-response” value at OR5A1 was “able to activate OR11A1 only”. For the same compound, the “activation of OR5AN1, concentration-response” value on OR5AN1 is reported as “stimulated neither”. The “activation of OR11A1, concentration-response” value on OR11A1 was “able to activate OR11A1 only”. The “activation of chimeric OR5A2_variant 1, concentration-response” value at chimeric OR5A2_variant 1 is on record as “not activated”; on chimeric OR5A2_variant 1 (listed as ethyl-fenchol) it was “not able to activate”.

The record behind these values is patent publication US12461089B2, “Olfactory receptor involved in the perception of musk fragrance and the use thereof” (ChemoSensoryX Biosciences SA, priority 2017, dated 2025).
